Like-named read-outs stand apart in the source and are kept apart here.
Legend:
Drosophila OR13a = target: T1, Drosophila OR13a (Drosophila melanogaster, UniProt Q9VXL0); assay: Calcium ion fluorescence (GCaMP6) assay, OR13a stable HEK293 cell line; type: cell-based; settings: for OR13a response (VUAA1-normalized) at 1 μM / OR13a response (VUAA1-normalized) at 10 μM / OR13a response (VUAA1-normalized) at 100 μM: OR13a cell line; for OR13a response (VUAA1-normalized) at 1 μM: VOC concentration 1 μM; for OR13a response (VUAA1-normalized) at 10 μM: VOC concentration 10 μM; for OR13a response (VUAA1-normalized) at 100 μM: VOC concentration 100 μM
T1 construct: expressed in transfected cells
T1 sequence (Q9VXL0 1-418): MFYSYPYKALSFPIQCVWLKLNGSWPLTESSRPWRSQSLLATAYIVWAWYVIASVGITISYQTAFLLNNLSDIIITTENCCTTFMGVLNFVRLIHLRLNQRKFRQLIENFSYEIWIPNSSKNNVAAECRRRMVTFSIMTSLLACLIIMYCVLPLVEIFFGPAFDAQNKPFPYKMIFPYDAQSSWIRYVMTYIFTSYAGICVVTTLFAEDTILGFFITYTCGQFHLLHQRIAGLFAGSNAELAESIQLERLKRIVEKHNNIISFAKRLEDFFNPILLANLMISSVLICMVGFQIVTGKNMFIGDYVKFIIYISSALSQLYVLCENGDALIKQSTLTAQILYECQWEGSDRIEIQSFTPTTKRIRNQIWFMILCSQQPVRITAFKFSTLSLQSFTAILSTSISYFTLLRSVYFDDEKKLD
T1 sequence (Q9VNB5 1-486 partner): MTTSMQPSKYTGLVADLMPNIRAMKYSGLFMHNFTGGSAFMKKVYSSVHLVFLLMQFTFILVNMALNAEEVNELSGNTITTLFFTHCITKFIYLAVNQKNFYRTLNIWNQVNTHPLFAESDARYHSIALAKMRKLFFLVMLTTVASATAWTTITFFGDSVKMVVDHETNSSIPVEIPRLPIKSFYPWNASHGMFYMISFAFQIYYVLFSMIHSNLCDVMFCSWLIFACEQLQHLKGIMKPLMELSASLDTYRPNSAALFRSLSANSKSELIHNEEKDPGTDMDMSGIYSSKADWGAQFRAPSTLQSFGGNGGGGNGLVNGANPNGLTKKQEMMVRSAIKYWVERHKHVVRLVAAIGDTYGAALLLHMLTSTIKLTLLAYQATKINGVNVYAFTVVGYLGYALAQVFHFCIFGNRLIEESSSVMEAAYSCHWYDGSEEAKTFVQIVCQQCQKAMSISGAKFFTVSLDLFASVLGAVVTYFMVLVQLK
Outline: (§1)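 Responses are VUAA1-normalized ΔF: each VOC-evoked calcium signal, (FMAX−F0)/F0 over 30 s after injection, divided by the same line's mean 50 µM VUAA1 response. Cells were doxycycline-induced HEK293 with GCaMP6 and the cognate Drosophila OR, in HEPES buffer pH 7.3; ligands tested 0.01–100 μM.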

Drosophila OR49b = target: T2, Drosophila OR49b (Drosophila melanogaster, UniProt Q9V6H2); assay: cell-based; settings: for activation at 1 µM / activation at 10 µM / activation at 100 µM: HEK293, read-out: OR49b response (VUAA1-normalized response); for activation at 1 µM / OR49b response (VUAA1-normalized) at 1 μM: VOC concentration 1 μM; for activation at 10 µM / OR49b response (VUAA1-normalized) at 10 μM: VOC concentration 10 μM; for activation at 100 µM / OR49b response (VUAA1-normalized) at 100 μM: VOC concentration 100 μM; for Average response / OR49b response (VUAA1-normalized) at 1 μM / OR49b response (VUAA1-normalized) at 10 μM / OR49b response (VUAA1-normalized) at 100 μM: OR49b cell line; for Average response: mean of biological replicates
T2 construct: expressed in transfected cells
T2 sequence (Q9V6H2 1-375): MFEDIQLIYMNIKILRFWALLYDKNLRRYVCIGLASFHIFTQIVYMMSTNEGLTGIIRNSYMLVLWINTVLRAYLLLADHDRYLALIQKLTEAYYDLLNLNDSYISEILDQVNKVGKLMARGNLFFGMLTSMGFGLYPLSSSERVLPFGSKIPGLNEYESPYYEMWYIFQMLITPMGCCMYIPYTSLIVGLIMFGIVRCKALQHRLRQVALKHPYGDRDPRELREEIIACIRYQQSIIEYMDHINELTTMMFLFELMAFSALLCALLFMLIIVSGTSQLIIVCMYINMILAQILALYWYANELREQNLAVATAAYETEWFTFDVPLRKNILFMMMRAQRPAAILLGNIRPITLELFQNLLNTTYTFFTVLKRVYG
T2 sequence (Q9VNB5 1-486 partner): T1 sequence (Q9VNB5 1-486 partner)
Outline: as §1

[1] = HEK293, read-out: OR13a Average response (VUAA1-normalized), 1 μM VOC, 50 μM VUAA1 = 1, responses not exceeding 0.05 considered 0
[2] = HEK293, read-out: OR13a Average response (VUAA1-normalized), 10 μM VOC, 50 μM VUAA1 = 1, responses not exceeding 0.05 considered 0
[3] = HEK293, read-out: OR13a Average response (VUAA1-normalized), 100 μM VOC, 50 μM VUAA1 = 1, responses not exceeding 0.05 considered 0
[4] = HEK293, read-out: OR13a response (VUAA1-normalized response), VOC concentration 1 μM
[5] = HEK293, read-out: OR13a response (VUAA1-normalized response), VOC concentration 10 μM
[6] = HEK293, read-out: OR13a response (VUAA1-normalized response), VOC concentration 100 μM
[7] = ligand concentration 1 (unit not given), threshold 0.05, below shown as 0
[8] = ligand concentration 10 (unit not given), threshold 0.05, below shown as 0
[9] = ligand concentration 100 (unit not given), threshold 0.05, below shown as 0
[10] = ligand concentration 1 (unit not given), 0.05 threshold, values below shown as 0
[11] = ligand concentration 10 (unit not given), 0.05 threshold, values below shown as 0
[12] = ligand concentration 100 (unit not given), 0.05 threshold, values below shown as 0

Structure (SMILES) | activation at 1 µM (Drosophila OR13a; [1]) [%] | activation at 10 µM (Drosophila OR13a; [2]) [%] | activation at 100 µM (Drosophila OR13a; [3]) [%] | activation at 1 µM (Drosophila OR13a; [4]) [%] | activation at 10 µM (Drosophila OR13a; [5]) [%] | activation at 100 µM (Drosophila OR13a; [6]) [%] | DF norm AVERAGE OR13a (Drosophila OR13a; [7]) | DF norm AVERAGE OR13a (Drosophila OR13a; [8]) | DF norm AVERAGE OR13a (Drosophila OR13a; [9]) | activation at 1 µM (Drosophila OR49b) [%] | activation at 10 µM (Drosophila OR49b) [%] | activation at 100 µM (Drosophila OR49b) [%] | Average response (Drosophila OR49b; odorant cc. 1 µM) | Average response (Drosophila OR49b; odorant cc. 10 µM) | Average response (Drosophila OR49b; odorant cc. 100 µM) | DF norm AVERAGE OR49b (Drosophila OR49b; [7]) | DF norm AVERAGE OR49b (Drosophila OR49b; [8]) | DF norm AVERAGE OR49b (Drosophila OR49b; [9]) | OR13a response (VUAA1-normalized) at 1 μM (Drosophila OR13a) | OR13a response (VUAA1-normalized) at 10 μM (Drosophila OR13a) | also measured
CCOC(=O)c1ccccc1 [ethyl benzoate] | 1.69 | 2.64 | 1.67 | 0 | 0 | 0 | 0 | 0 | 0 | 6 | 0 | 0 | 0.06 | 0.0464 | 0.0169 | 0.05937 | 0 | 0 |  |  | 
CCCCCCCCCC=O [decanal] | 0 | 0 | 0 | 0 | 0 | 0 | 0 | 0 | 0 | 0 | 0 | 9 | 0.00 | 0.00 | 0.09 | 0 | 0 | 0.08966 |  |  | 
CCCCCC(=O)OCC [ethyl hexanoate] | 3.2 | 2.46 | 0 | 0 | 0 | 0 | 0 | 0 | 0 | 0 | 0 | 0 | 0.00 | 0.00 | 0.00 | 0 | 0 | 0 |  |  | 
CC/C=C\CCOC(C)=O [Z-3-hexenyl acetate] |  |  |  |  |  |  |  |  |  |  |  |  |  |  |  |  |  |  | 0.00 | 0.00 | OR13a response (VUAA1-normalized) at 100 μM (Drosophila OR13a): 0.09; OR49b response (VUAA1-normalized) at 1 μM (Drosophila OR49b): 0.00; OR49b response (VUAA1-normalized) at 10 μM (Drosophila OR49b): 0.00; OR49b response (VUAA1-normalized) at 100 μM (Drosophila OR49b): 0.00
CC/C=C\CCOC(C)=O [z3-hexenyl acetate] | 0 | 2.61 | 9 |  |  |  |  |  |  |  |  |  | 0.0379 | 0.0171 | 0.04 |  |  |  |  |  | DF norm AVERAGE OR13a (Drosophila OR13a; [10]): 0; DF norm AVERAGE OR13a (Drosophila OR13a; [11]): 0; DF norm AVERAGE OR13a (Drosophila OR13a; [12]): 0.09283; DF norm AVERAGE OR49b (Drosophila OR49b; [10]): 0; DF norm AVERAGE OR49b (Drosophila OR49b; [11]): 0; DF norm AVERAGE OR49b (Drosophila OR49b; [12]): 0
C=C1CCC2(C(C)C)CC12 (stereo not drawn) [sabinene] | 0 | 0 | 0 |  |  |  | 0 | 0 | 0 |  |  |  | 0.00 | 0.00 | 0.0368 | 0 | 0 | 0 | 0.00 | 0.00 | OR13a response (VUAA1-normalized) at 100 μM (Drosophila OR13a): 0.00; OR49b response (VUAA1-normalized) at 1 μM (Drosophila OR49b): 0.00; OR49b response (VUAA1-normalized) at 10 μM (Drosophila OR49b): 0.00; OR49b response (VUAA1-normalized) at 100 μM (Drosophila OR49b): 0.00
C=CC(C)(O)CCC=C(C)C (stereo not drawn) [linalool] | 1.21 | 4.47 | 0 |  |  |  | 0 | 0 | 0 |  |  |  | 0.00 | 0.00 | 0.0212 | 0 | 0 | 0 | 0.00 | 0.00 | OR13a response (VUAA1-normalized) at 100 μM (Drosophila OR13a): 0.00; OR49b response (VUAA1-normalized) at 1 μM (Drosophila OR49b): 0.00; OR49b response (VUAA1-normalized) at 10 μM (Drosophila OR49b): 0.00; OR49b response (VUAA1-normalized) at 100 μM (Drosophila OR49b): 0.00
CC(=O)OCC(C)C [isobutyl acetate] | 2 | 7 | 3.7 | 0 | 7 | 0 | 0 | 0.06695 | 0 | 5 | 0 | 0 | 0.05 | 0.0342 | 0.00 | 0.05093 | 0 | 0 |  |  | 

From PMC10709440, “High-throughput ligand profile characterization in novel cell lines expressing seven heterologous insect olfactory receptors for the detection of volatile plant biomarkers” (Scientific Reports, 2023)
